Measured values published in ChEMBL document CHEMBL5608195, “Identification and biological evaluation of fused tetrahydroisoquinoline derivatives as Wnt/β-catenin signaling inhibitors to suppress colorectal cancer” (Eur J Med Chem, 2024).
Activity calls are given as the source filed them. The rule behind the calls is not given here.

Legend:
[1] = Bioavailability in male ICR (CD-1) mouse at 10 mg/kg, ip measured upto 24 hrs by LC-MS/MS analysis; assay type: ADME, organism-based; conditions: in vivo
RKO [2] = assay: Antiproliferative activity against human RKO cells assessed as inhibition of DNA proliferation at 10 uM incubated for 22 hrs by fluorescence based microscopic analysis; assay type: functional, cell-based
HCT-116 [3] = assay: Antiproliferative activity against human HCT-116 cells incubated for 24 hrs by MTT assay; assay type: functional, cell-based; conditions: HCT-116, 24 h
RKO [4] = assay: Antiproliferative activity against human RKO cells incubated for 24 hrs by MTT assay; assay type: functional, cell-based
[5] = AUC (0 to infinity) in male ICR (CD-1) mouse at 20 mg/kg, po measured upto 24 hrs by LC-MS/MS analysis; assay type: ADME, organism-based; conditions: in vivo
[6] = Tmax in male ICR (CD-1) mouse at 10 mg/kg, ip measured upto 24 hrs by LC-MS/MS analysis; assay type: ADME, organism-based; conditions: in vivo
[7] = Half life in male ICR (CD-1) mouse at 10 mg/kg, ip measured upto 24 hrs by LC-MS/MS analysis; assay type: ADME, organism-based; conditions: in vivo
[8] = Cmax in male ICR (CD-1) mouse at 10 mg/kg, ip measured upto 24 hrs by LC-MS/MS analysis; assay type: ADME, organism-based; conditions: in vivo
[9] = AUC (0 to infinity) in male ICR (CD-1) mouse at 5 mg/kg, iv measured upto 24 hrs by LC-MS/MS analysis; assay type: ADME, organism-based; conditions: in vivo
RKO [10] = assay: Antiproliferative activity against human RKO cells assessed as inhibition of DNA replication at 10 uM incubated for 22 hrs by fluorescence based microscopic analysis; assay type: functional, cell-based
HCT-116 [11] = assay: Inhibition of colony formation in human HCT-116 cells incubated for 24 hrs by crystal violet staining based analysis; assay type: functional, cell-based; conditions: dose 6-10 µM
HCT-116 [12] = assay: Induction of cell cycle arrest in human HCT-116 cells assessed as accumulation of cells at G2/M phase incubated for 24 hrs by PI staining based flow cytometry; assay type: functional; conditions: dose 6-10 µM
RKO [13] = assay: Induction of cell cycle arrest in human RKO cells assessed as accumulation of cells at S phase incubated for 24 hrs by PI staining based flow cytometry; assay type: functional; conditions: dose 6-10 µM
HCT-116 [14] = assay: Induction of cell cycle arrest in human HCT-116 cells assessed as downregulation of CDK1 protein level by Western blot analysis; assay type: functional, cell-based
RKO [15] = assay: Induction of cell cycle arrest in human RKO cells assessed as downregulation of Cyclin D1 protein level by Western blot analysis; assay type: functional, cell-based
HCT-116 [16] = assay: Induction of cell cycle arrest in human HCT-116 cells assessed as downregulation of c-Myc protein level by Western blot analysis; assay type: functional, cell-based
RKO [17] = assay: Induction of cell cycle arrest in human RKO cells assessed as downregulation of c-Myc protein level by Western blot analysis; assay type: functional, cell-based
RKO [18] = assay: Induction of cell cycle arrest in human RKO cells assessed as downregulation of Cyclin B1 protein level by Western blot analysis; assay type: functional, cell-based
HCT-116 [19] = assay: Induction of cell cycle arrest in human HCT-116 cells assessed as downregulation of Cyclin A2 protein level by Western blot analysis; assay type: functional, cell-based
HCT-116 [20] = assay: Induction of cell cycle arrest in human HCT-116 cells assessed as upregulation of P21 protein level by Western blot analysis; assay type: functional, cell-based
RKO [21] = assay: Induction of cell cycle arrest in human RKO cells assessed as upregulation of P21 protein level by Western blot analysis; assay type: functional, cell-based
HCT-116 [22] = assay: Inhibition of Wnt/beta-catenin signaling pathway in human HCT-116 cells assessed as downregulation of beta-catenin expression incubated for 24 hrs by qRT-PCR analysis; assay type: cell-based; conditions: dose <= 10.0 µM
RKO [23] = assay: Inhibition of Wnt/beta-catenin signaling pathway in human RKO cells assessed as induction of beta-catenin degradation pretreated with cycloheximide followed by compound addition by Western blot analysis; assay type: cell-based; conditions: time <= 6.0 hrs, TDE = time-dependent effect
HCT-116 [24] = assay: Inhibition of Wnt/beta-catenin signaling pathway in human HCT-116 cells assessed as induction of beta-catenin degradation in presence of MG132 by Western blot analysis; assay type: cell-based
[25] = Toxicity in Kunming mouse assessed as drug tolerance at 200 to 400 mg/kg, ip; assay type: organism-based; conditions: in vivo, dose 200-400 mg/kg
[26] = Binding affinity to recombinant N-terminal GST-tagged human HSP90 (1 to 224 residues) extracted from Escherichia coli BL21 (DE3) cells assessed as dissociation constant by surface plasmon resonance assay
[27] = molecular target: Heat shock protein HSP90 (Homo sapiens) (UniProt P07900+P08238); assay: Induction of thermal stabilization of Hsp90 in human RKO cells at 37 to 82 degree C at 100 uM incubated for 1 hr by thermal shift assay; assay type: cell-based
HCT-116 [28] = assay: Antitumor activity against human HCT-116 cells xenografted in male BALB/c mouse assessed as tumor growth inhibition at 10 mg/kg, ip measured every two days for upto 20 days relative to control; assay type: functional; conditions: HCT-116, 480 h, time <= 20 day, read-out: TGI
HCT-116 [29] = assay: Antitumor activity against human HCT-116 cells xenografted in male BALB/c mouse assessed as tumor growth inhibition at 40 mg/kg, ip measured every two days for upto 20 days relative to control; assay type: functional; conditions: HCT-116, 480 h, time <= 20 day, read-out: TGI
[30] = Toxicity in male BALB/c mouse xenografted with human HCT-116 cells assessed as effect on serum ALT level at 10 to 40 mg/kg, ip by biochemical analysis; assay type: organism-based; conditions: in vivo, dose 10-40 mg/kg
[31] = Toxicity in male BALB/c mouse xenografted with human HCT-116 cells assessed as effect on serum ALP level at 10 to 40 mg/kg, ip by biochemical analysis; assay type: organism-based; conditions: in vivo, dose 10-40 mg/kg
[32] = Toxicity in male BALB/c mouse xenografted with human HCT-116 cells assessed as effect on serum urea level at 10 to 40 mg/kg, ip by biochemical analysis; assay type: organism-based; conditions: in vivo, dose 10-40 mg/kg
[33] = Toxicity in male BALB/c mouse xenografted with human HCT-116 cells assessed as histological change in heart at 10 to 40 mg/kg, ip by H and E staining based optical microscopic analysis; assay type: organism-based; conditions: in vivo, dose 10-40 mg/kg
[34] = Toxicity in male BALB/c mouse xenografted with human HCT-116 cells assessed as histological change in liver at 10 to 40 mg/kg, ip by H and E staining based optical microscopic analysis; assay type: organism-based; conditions: in vivo, dose 10-40 mg/kg
[35] = Toxicity in male BALB/c mouse xenografted with human HCT-116 cells assessed as histological change in kidney at 10 to 40 mg/kg, ip by H and E staining based optical microscopic analysis; assay type: organism-based; conditions: in vivo, dose 10-40 mg/kg
HCT-116 [36] = assay: Antitumor activity against human HCT-116 cells xenografted in male BALB/c mouse assessed as induction of apoptosis by measuring increase cleaved-caspase-3 protein level at 10 to 40 mg/kg, ip by Immunohistochemical staining based analysis; assay type: functional, organism-based; conditions: dose 10-40 mg/kg
HCT-116 [37] = assay: Antitumor activity against human HCT-116 cells xenografted in male BALB/c mouse assessed as decrease in Ki-67 protein level at 10 to 40 mg/kg, ip by Immunohistochemical staining based analysis; assay type: functional, organism-based; conditions: dose 10-40 mg/kg
HCT-116 [38] = assay: Inhibition of Hsp90/beta-catenin in human HCT-116 cells at 6 to 10 uM incubated for 24 hrs by co-immunoprecipitation analysis; assay type: cell-based; conditions: dose 6-10 µM
[39] = Toxicity in Kunming mouse assessed as behavioural changes at 200 to 400 mg/kg, ip; assay type: organism-based; conditions: in vivo, dose 200-400 mg/kg

With `CC12c3ccc(Cl)cc3CCN1CCc1c2[nH]c2ccc(Cl)cc12` (centres undefined) as the compound, how does the bioavailability [1] read?
The bioavailability was 97%.

And the Activity (RKO [2])?
Its Activity is “Active”.

What about the IC50 (HCT-116 [3]) of the same compound?
Its IC50 is 8.31 µM.

What about the IC50 (RKO [4]) of the same compound?
The IC50 was 7.97 µM.

And the AUC(0-inf) [5]?
The AUC(0-inf) was 2720 ng·h/mL.

What about the Tmax [6] of the same compound?
Its Tmax is 0.25 h.

What about the half-life [7] of the same compound?
The half-life was 3.55 h.

And the Cmax [8]?
Its Cmax is 1450 ng/mL.

What about the AUC(0-inf) [9] of the same compound?
Its AUC(0-inf) is 1500 ng·h/mL.

And the Activity (RKO [10])?
The Activity was “Active”.

What about the inhibition (HCT-116 [11]) of the same compound?
The inhibition was “Dose-Dependent Effect”.

And the Activity (HCT-116 [12])?
The Activity was “Dose-Dependent Effect”.

And the Activity (RKO [13])?
Its Activity is “Dose-Dependent Effect”.

What about the Activity (HCT-116 [14]) of the same compound?
The Activity was “Dose-Dependent Effect”.

What about the Activity (RKO [15]) of the same compound?
Its Activity is “Dose-Dependent Effect”.

What about the Activity (HCT-116 [16]) of the same compound?
Its Activity is “Dose-Dependent Effect”.

What about the Activity (RKO [17]) of the same compound?
The Activity was “Dose-Dependent Effect”.

What about the Activity (RKO [18]) of the same compound?
The Activity was “Dose-Dependent Effect”.

What about the Activity (HCT-116 [19]) of the same compound?
Its Activity is “Dose-Dependent Effect”.

What about the Activity (HCT-116 [20]) of the same compound?
Its Activity is “Dose-Dependent Effect”.

And the Activity (RKO [21])?
Its Activity is “Dose-Dependent Effect”.

What about the inhibition (HCT-116 [22]) of the same compound?
The inhibition was “Dose-Dependent Effect”.

And the inhibition (RKO [23])?
The inhibition was “Tde”.

What about the inhibition (HCT-116 [24]) of the same compound?
The inhibition was “inactive”.

And the Activity [25]?
The Activity was “Non-Toxic”.

And the Kd [26]?
The Kd was 12.2 µM.

What about the Activity [27] of the same compound?
Its Activity is “Active”.

What about the inhibition in vivo at 10 mg/kg (HCT-116 [28]) of the same compound?
The inhibition in vivo at 10 mg/kg was 57.4%.

What about the inhibition in vivo at 40 mg/kg (HCT-116 [29]) of the same compound?
Its inhibition in vivo at 40 mg/kg is 71.6%.

And the Activity [30]?
The Activity was “Non-Toxic”.

What about the Activity [31] of the same compound?
The Activity was “Non-Toxic”.

What about the Activity [32] of the same compound?
The Activity was “Non-Toxic”.

And the Activity [33]?
The Activity was “Non-Toxic”.

What about the Activity [34] of the same compound?
The Activity was “Non-Toxic”.

What about the Activity [35] of the same compound?
The Activity was “Non-Toxic”.

And the Activity (HCT-116 [36])?
The Activity was “Active”.

And the Activity (HCT-116 [37])?
Its Activity is “Active”.

What about the inhibition (HCT-116 [38]) of the same compound?
Its inhibition is “Dose-Dependent Effect”.

What about the Activity [39] of the same compound?
The Activity was “Non-Toxic”.
